PubChem BioAssay AID2060902 (Molecular Pharmacology Branch, DTP, NCI, 2025)
pIC50: −log10 of the molar value.

Tested on: 485368-065-R3-J5-PDC spheroids with HUVEC/MSC, viability
Test: Anticancer human tumor 485368-065-R3-J5-PDC patient-derived pancreatic carcinoma cell line growth inhibition [RAS]
Settings: for pIC50: curve of first compound; for viability, T/C: stronger effect = lower value
Procedure, shortened: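 Agents were tested in combination matrices in half-log decrements from a top concentration at or near clinical Cmax (10 microM if undetermined). Targets were multi-cell spheroids of tumour lines plus HUVEC and MSC stromal cells.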

[1] = second compound 0.00316 µM, first compound 0.0316 µM
[2] = second compound 0.00316 µM, first compound 0.1 µM
[3] = second compound 0.00316 µM, first compound 0.316 µM
[4] = second compound 0.00316 µM, first compound 1 µM
[5] = second compound 0.00316 µM, first compound 3.16 µM
[6] = second compound 0.00316 µM, first compound 10 µM
[7] = second compound 0.01 µM, first compound 0.0316 µM
[8] = second compound 0.01 µM, first compound 0.1 µM
[9] = second compound 0.01 µM, first compound 0.316 µM
[10] = second compound 0.01 µM, first compound 1 µM
[11] = second compound 0.01 µM, first compound 3.16 µM
[12] = second compound 0.01 µM, first compound 10 µM
[13] = second compound 0.0316 µM, first compound 0.0316 µM
[14] = second compound 0.0316 µM, first compound 0.1 µM
[15] = second compound 0.0316 µM, first compound 0.316 µM
[16] = second compound 0.0316 µM, first compound 1 µM
[17] = second compound 0.0316 µM, first compound 3.16 µM
[18] = second compound 0.0316 µM, first compound 10 µM
[19] = second compound 0.1 µM, first compound 0.0316 µM
[20] = second compound 0.1 µM, first compound 0.1 µM
[21] = second compound 0.1 µM, first compound 0.316 µM
[22] = second compound 0.1 µM, first compound 1 µM
[23] = second compound 0.1 µM, first compound 3.16 µM
[24] = second compound 0.1 µM, first compound 10 µM
[25] = second compound 0.316 µM, first compound 0.0316 µM
[26] = second compound 0.316 µM, first compound 0.1 µM
[27] = second compound 0.316 µM, first compound 0.316 µM
[28] = second compound 0.316 µM, first compound 1 µM
[29] = second compound 0.316 µM, first compound 3.16 µM
[30] = second compound 0.316 µM, first compound 10 µM
[31] = second compound 1 µM, first compound 0.0316 µM
[32] = second compound 1 µM, first compound 0.1 µM
[33] = second compound 1 µM, first compound 0.316 µM
[34] = second compound 1 µM, first compound 1 µM
[35] = second compound 1 µM, first compound 3.16 µM
[36] = second compound 1 µM, first compound 10 µM
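Further: spheroids exposed to agents for seven days before readout.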

With `CC(Nc1ccc2c(c1)OCCn1cc(N3C(=O)OCC3C(F)F)nc1-2)C(N)=O` (stereo unspecified) + C=CC(=O)N1CCN(c2nc(OCC3CCCN3C)nc3c(F)c(-c4nc(N)cc(C)c4C(F)(F)F)c(Cl)cc23)C(C)C1 as the molecule, how does the pIC50 (second compound 0.00316 µM) read?
Its pIC50 is under 5.00.

And the pIC50 (second compound 0.01 µM)?
Its pIC50 is under 5.00.

And the pIC50 (second compound 0.0316 µM)?
Its pIC50 is under 5.00.

And the pIC50 (second compound 0.1 µM)?
Its pIC50 is 5.01.

What about the pIC50 (second compound 0.316 µM) of the same molecule?
Its pIC50 is under 5.00.

And the pIC50 (second compound 1 µM)?
The pIC50 was 5.30.

What about the viability, T/C [1] of the same molecule?
Its viability, T/C is 103%.

And the viability, T/C [2]?
The viability, T/C was 79.8%.

And the viability, T/C [3]?
Its viability, T/C is 88.5%.

What about the viability, T/C [4] of the same molecule?
The viability, T/C was 75.4%.

What about the viability, T/C [5] of the same molecule?
Its viability, T/C is 75.6%.

And the viability, T/C [6]?
The viability, T/C was 51.3%.

What about the viability, T/C [7] of the same molecule?
Its viability, T/C is 92.4%.

What about the viability, T/C [8] of the same molecule?
The viability, T/C was 86.9%.

And the viability, T/C [9]?
The viability, T/C was 91.8%.

And the viability, T/C [10]?
Its viability, T/C is 72.8%.

And the viability, T/C [11]?
Its viability, T/C is 76.5%.

What about the viability, T/C [12] of the same molecule?
The viability, T/C was 49.5%.

And the viability, T/C [13]?
The viability, T/C was 87.1%.

And the viability, T/C [14]?
The viability, T/C was 72.3%.

What about the viability, T/C [15] of the same molecule?
The viability, T/C was 88%.

And the viability, T/C [16]?
The viability, T/C was 85.7%.

What about the viability, T/C [17] of the same molecule?
Its viability, T/C is 76.4%.

And the viability, T/C [18]?
The viability, T/C was 52.1%.

And the viability, T/C [19]?
Its viability, T/C is 100%.

What about the viability, T/C [20] of the same molecule?
The viability, T/C was 97.6%.

What about the viability, T/C [21] of the same molecule?
The viability, T/C was 102%.

What about the viability, T/C [22] of the same molecule?
The viability, T/C was 82%.

What about the viability, T/C [23] of the same molecule?
The viability, T/C was 73.8%.

What about the viability, T/C [24] of the same molecule?
The viability, T/C was 49.3%.

And the viability, T/C [25]?
Its viability, T/C is 98.5%.

What about the viability, T/C [26] of the same molecule?
Its viability, T/C is 87.1%.

What about the viability, T/C [27] of the same molecule?
Its viability, T/C is 78.4%.

What about the viability, T/C [28] of the same molecule?
The viability, T/C was 70.5%.

And the viability, T/C [29]?
The viability, T/C was 82.8%.

What about the viability, T/C [30] of the same molecule?
The viability, T/C was 57.1%.

And the viability, T/C [31]?
The viability, T/C was 101%.

What about the viability, T/C [32] of the same molecule?
Its viability, T/C is 90.5%.

And the viability, T/C [33]?
Its viability, T/C is 87.5%.

And the viability, T/C [34]?
The viability, T/C was 84.7%.

What about the viability, T/C [35] of the same molecule?
Its viability, T/C is 55%.

And the viability, T/C [36]?
Its viability, T/C is 41.3%.

How did the pIC50 (second compound 0.00316 µM) turn out when `C[C@@H](NC(=O)c1ncnc(N)c1Cl)c1ncc(C(=O)Nc2cc(C(F)(F)F)c(Cl)cn2)s1` + C=CC(=O)N1CCN(c2nc(OCC3CCCN3C)nc3c(F)c(-c4nc(N)cc(C)c4C(F)(F)F)c(Cl)cc23)C(C)C1 was run?
Its pIC50 is under 5.00.

What about the pIC50 (second compound 0.01 µM) of the same molecule?
Its pIC50 is under 5.00.

What about the pIC50 (second compound 0.0316 µM) of the same molecule?
The pIC50 was under 5.00.

And the pIC50 (second compound 0.1 µM)?
The pIC50 was under 5.00.

And the pIC50 (second compound 0.316 µM)?
The pIC50 was under 5.00.

What about the pIC50 (second compound 1 µM) of the same molecule?
The pIC50 was under 5.00.

And the viability, T/C [1]?
Its viability, T/C is 119%.

What about the viability, T/C [2] of the same molecule?
The viability, T/C was 99.9%.

What about the viability, T/C [3] of the same molecule?
The viability, T/C was 104%.

And the viability, T/C [4]?
Its viability, T/C is 95%.

What about the viability, T/C [5] of the same molecule?
Its viability, T/C is 86.6%.

And the viability, T/C [6]?
Its viability, T/C is 73.7%.

And the viability, T/C [7]?
Its viability, T/C is 103%.

And the viability, T/C [8]?
Its viability, T/C is 105%.

And the viability, T/C [9]?
Its viability, T/C is 95.8%.

And the viability, T/C [10]?
The viability, T/C was 104%.

What about the viability, T/C [11] of the same molecule?
The viability, T/C was 92.1%.

And the viability, T/C [12]?
The viability, T/C was 77%.

What about the viability, T/C [13] of the same molecule?
Its viability, T/C is 107%.

And the viability, T/C [14]?
Its viability, T/C is 94.8%.

And the viability, T/C [15]?
The viability, T/C was 104%.

And the viability, T/C [16]?
The viability, T/C was 104%.

What about the viability, T/C [17] of the same molecule?
Its viability, T/C is 91.8%.

And the viability, T/C [18]?
Its viability, T/C is 78.6%.

What about the viability, T/C [19] of the same molecule?
The viability, T/C was 108%.

And the viability, T/C [20]?
Its viability, T/C is 103%.

And the viability, T/C [21]?
Its viability, T/C is 107%.

What about the viability, T/C [22] of the same molecule?
Its viability, T/C is 103%.

What about the viability, T/C [23] of the same molecule?
The viability, T/C was 94.6%.

And the viability, T/C [24]?
Its viability, T/C is 77%.

What about the viability, T/C [25] of the same molecule?
Its viability, T/C is 104%.

And the viability, T/C [26]?
The viability, T/C was 106%.

And the viability, T/C [27]?
The viability, T/C was 107%.

What about the viability, T/C [28] of the same molecule?
The viability, T/C was 102%.

What about the viability, T/C [29] of the same molecule?
The viability, T/C was 98.6%.

What about the viability, T/C [30] of the same molecule?
The viability, T/C was 80.2%.

And the viability, T/C [31]?
The viability, T/C was 105%.

What about the viability, T/C [32] of the same molecule?
Its viability, T/C is 111%.

What about the viability, T/C [33] of the same molecule?
The viability, T/C was 94.7%.

What about the viability, T/C [34] of the same molecule?
The viability, T/C was 104%.

And the viability, T/C [35]?
The viability, T/C was 96.5%.

What about the viability, T/C [36] of the same molecule?
Its viability, T/C is 81.4%.

Which results are given for `O=C(c1ccc(F)c(F)c1Nc1ccc(I)cc1F)N1CC(O)([C@@H]2CCCCN2)C1` + C=CC(=O)N1CCN(c2nc(OCC3CCCN3C)nc3c(F)c(-c4nc(N)cc(C)c4C(F)(F)F)c(Cl)cc23)C(C)C1?
pIC50 (second compound 0.00316 µM): 7.54; pIC50 (second compound 0.01 µM): 7.56; pIC50 (second compound 0.0316 µM): 7.51; pIC50 (second compound 0.1 µM): 7.54; pIC50 (second compound 0.316 µM): 7.46; pIC50 (second compound 1 µM): 7.30; viability, T/C (second compound 0.00316 µM, first compound 0.00316 µM): 106%; viability, T/C (second compound 0.00316 µM, first compound 0.01 µM): 60.2%; viability, T/C [1]: 56.9%; viability, T/C [2]: 30.1%; viability, T/C [3]: 24.3%; viability, T/C [4]: 8.78%; viability, T/C (second compound 0.01 µM, first compound 0.00316 µM): 99.8%; viability, T/C (second compound 0.01 µM, first compound 0.01 µM): 71.6%; viability, T/C [7]: 44.8%; viability, T/C [8]: 29.5%; viability, T/C [9]: 26.1%; viability, T/C [10]: 8.23%; viability, T/C (second compound 0.0316 µM, first compound 0.00316 µM): 90.9%; viability, T/C (second compound 0.0316 µM, first compound 0.01 µM): 73.1%; viability, T/C [13]: 47.8%; viability, T/C [14]: 29.8%; viability, T/C [15]: 23.1%; viability, T/C [16]: 7.64%; viability, T/C (second compound 0.1 µM, first compound 0.00316 µM): 86%; viability, T/C (second compound 0.1 µM, first compound 0.01 µM): 72.3%; viability, T/C [19]: 44.6%; viability, T/C [20]: 30.4%; viability, T/C [21]: 25.3%; viability, T/C [22]: 8.95%; viability, T/C (second compound 0.316 µM, first compound 0.00316 µM): 85.8%; viability, T/C (second compound 0.316 µM, first compound 0.01 µM): 68.6%; viability, T/C [25]: 50.5%; viability, T/C [26]: 33.1%; viability, T/C [27]: 26.8%; viability, T/C [28]: 8.9%; viability, T/C (second compound 1 µM, first compound 0.00316 µM): 91.6%; viability, T/C (second compound 1 µM, first compound 0.01 µM): 65.5%; viability, T/C [31]: 52.7%; viability, T/C [32]: 47.3%; viability, T/C [33]: 27.6%; viability, T/C [34]: 11.4%
